Reference: patent US7045343B2, “Sterilization indicator test packs” (3M Innovative Properties Company, priority 1998, dated 2006)

Tests used:
[1] = system: Bacillus stearothermophilus spores; test: Spore outgrowth (color change) of indicators after prevacuum steam sterilization; type: cell-based; settings: 4-pulse prevacuum steam 121° C.
Protocol: (§1) The indicators prepared for the Examples were dual rapid readout indicators that provided both a rapid, enzyme-based efficacy test and a confirmatory spore outgrowth test. Spores coated on the carrier strip 16 served as the source of active enzyme whose activity was measured by the rapid enzyme test. These same spores were then incubated in the spore outgrowth portion of the test.
(§2) Bacillus stearothermophilus, commercially available as ATCC 7953 from American Type Culture Collection, Rockville, Md., was grown overnight (16 hours) at 58° C. in tryptic soy broth. This culture was used to inoculate the surface of agar plates consisting of 8 g/l nutrient broth, 4 g/l yeast extract, 0.1 g/l manganese chloride and 20 g/l agar at pH 7.2. Plates were incubated at 58° C. for 72 hours. Spores were scraped from the plates and suspended in sterile distilled water. The spores were separated from the vegetative debris by centrifuging the suspension at 7000 rpm and 4° C. for 20 minutes. The supernatant was poured off and the spores were resuspended in sterile distilled water. The cleaning procedure was repeated several times. After the final wash, the spores were suspended in sterile distilled water, at a concentration of approximately 1×10^8 spores per milliliter.
(§3) The spores were then treated with the chemicals identified in Tables 1–5. All chemicals tested were obtained from commercial sources. The spores were centrifuged at 6000 rpm for 10 minutes. The supernatant and coating chemical mixtures were heated at 60–80° C. for several minutes and vortexed to get the material into solution. The spores were then mixed into the sterilant-resistant chemical solution. The sterilant-resistant chemical solution was applied to 5×25 mm, 591 A paper strips (Schleicher & Schuell, Inc., Keene, N.H.) by pipetting 10–15 microliters to each strip for a final population of about 1×10^6 spores per strip. The strips were dried 16 hours at 37° C.
(§4) The treated spore strips were placed on the bottom of the outer container 12 of the indicator 10 and a barrier was inserted between the spore strip 16 and the inner container 18, which contained enzyme substrate. A […] ( 11/16 inch) disc of polypropylene blown microfiber material, with a weight of 200 g/m^2, commercially available as “THINSULATE™ 200-B brand Thermal Insulation” from 3M Company, St. Paul, Minn., was used as the barrier. The inner container 18 contained 0.67 ml nutrient medium, consisting of 17 g of a bacteriological peptone and a 0.17 g/l of L-alanine, as well as 0.1 g 4-methylumbelliferyl-alpha-D-glucoside, commercially available from Sigma Chemical Company, St. Louis, Mo., dissolved in 200 microliters of N,N-dimethylformamide, and 0.03 g bromocresol purple pH indicator dye, per liter of water. The pH of the enzyme substrate and nutrient medium solution was adjusted to 7.6 with 0.1N sodium hydroxide.
(§5) Sterilization indicators were made as described above with each of the chemicals and concentrations described in Table 1. Control indicators were made using untreated spores. The indicators were placed in metal instrument trays and exposed at 121° C. in a Getinge Steam Sterilizer (Getinge International, Inc., 1100 Towbin Ave., Lakewood, N.J.) using a 4-pulse prevacuum cycle at 121° C. with a vacuum level of 0.075–0.085 bar and a steam pulse to 1.00 bar for each pulse. Indicators were exposed in the sterilizer for between 7 and 13 minutes. This cycle is depicted in the time-pressure diagram in FIG. 5. After exposure the inner containers containing the enzyme substrate and nutrient medium were crushed and the indicators were incubated at 60° C. The indicators were examined for fluorescence using a 3M™ ATTEST™ Model 190 Rapid Autoreader, commercially available from 3M Company, St. Paul, Minn. Additionally, spore growth, as indicated by a color change from purple to yellow, was determined visually after 168 hours of incubation at 60° C. […]

[2] = system: enzyme associated with Bacillus stearothermophilus spores; test: Rapid enzyme fluorescence readout of dual rapid readout indicators after prevacuum steam sterilization; type: biochemical; settings: 4-pulse prevacuum steam 121° C.
Protocol: as §1, §2, §3, §4, §5

[3] = system: enzyme associated with Bacillus stearothermophilus spores; test: Rapid enzyme fluorescence readout of indicators after hydrogen peroxide plasma sterilization; type: biochemical; settings: 1–3 hours after exposure
Protocol: Sterilization indicators for Examples 6–9 were prepared as described above with the exception that closure member 22 of the sterilization indicator was constructed of TYVEK™ high-density polyethylene fiber material, commercially available from E.I. du Pont de Nemours and Co., Wilmington, Del.
(§6) Sterilization indicators were made as described above with spores that had been coated with each of the chemicals and concentrations listed in Table 6. The indicators were placed in instrument trays and exposed to a hydrogen peroxide plasma sterilization procedure at 45–55° C. in a STERRAD™ 100SI GMP Sterilizer, obtained from Advanced Sterilization Products Co., Irvine, Calif. During the sterilization procedure a vacuum was drawn in the sterilization chamber for 5–6 minutes until the pressure was reduced to 300 mTorr. A 1.8 ml aliquot of an aqueous solution of 58–60% hydrogen peroxide was then injected into the sterilization chamber over a period of about 6 minutes, yielding an empty chamber concentration of […] hydrogen peroxide, and hydrogen peroxide vapor was allowed to diffuse throughout the chamber for 1–22 minutes at 6–10 Torr. A vacuum was then drawn, reducing the pressure to 500 mTorr and removing all detectable hydrogen peroxide vapor from the chamber.
After exposure to the sterilization procedure, the indicators were removed from the sterilizer and the inner containers containing the enzyme substrate and nutrient medium were crushed. The indicators were then incubated at 60° C. and examined for fluorescence every hour for 5 hours using a 3M™ ATTEST™ Model 190 Rapid Autoreader, commercially available from 3M Company, St. Paul, Minn. Additionally, spore growth, as indicated by a color change from purple to yellow, was determined visually after 168 hours of incubation.
The number of growth positive indicators detected after 168 hours of incubation is recorded in Table 6.
as §6, with “7.” for “6.”
as §6, with “8.” for “6.”, “chamber. […]” for “chamber.”

[4] = Example 1, 20 mg/ml coating, 7–13 min
[5] = Example 1, 40 mg/ml coating, 7–13 min
[6] = Example 4, 50 mg/ml coating, 7–18 min
[7] = Example 4, 100 mg/ml coating, 7–18 min
[8] = Example 5, 50 mg/ml coating, 7–13 min
[9] = Example 5, 100 mg/ml coating, 7–13 min
[10] = Example 3, 100 mg/ml coating, 7–15 min
[11] = Example 2, 5 mg/ml coating, 7–13 min
[12] = Example 2, 10 mg/ml coating, 7–13 min
[13] = Example 2, 20 mg/ml coating, 7–13 min
[14] = Example 2, 40 mg/ml coating, 7–13 min
[15] = Example 2, 80 mg/ml coating, 7–13 min
[16] = Example 2, 100 mg/ml coating, 7–13 min

## Glycereth-7-diisononanoate
[1]; [4]
  NO. GROWTH POSITIVE 168 HR: 6
[1]; [5]
  NO. GROWTH POSITIVE 168 HR: 17
[2]; [4]
  FLUORESCENCE - PERCENT POSITIVE 1 HR: 0%
  FLUORESCENCE - PERCENT POSITIVE 2 HR: 0%
  FLUORESCENCE - PERCENT POSITIVE 3 HR: 66.7%
  FLUORESCENCE - PERCENT POSITIVE 4 HR: 83.3%
  FLUORESCENCE - PERCENT POSITIVE 5 HR: 83.3%
  FLUORESCENCE - PERCENT POSITIVE 6 HR: 83.3%
[2]; [5]
  FLUORESCENCE - PERCENT POSITIVE 1 HR: 0%
  FLUORESCENCE - PERCENT POSITIVE 2 HR: 64.7%
  FLUORESCENCE - PERCENT POSITIVE 3 HR: 88.2%
  FLUORESCENCE - PERCENT POSITIVE 4 HR: 88.2%
  FLUORESCENCE - PERCENT POSITIVE 5 HR: 94.1%
  FLUORESCENCE - PERCENT POSITIVE 6 HR: 100.0%

## Decaglyceryl Monolaurate
[1]; [6]
  NO. GROWTH POSITIVE 168 HR: 11
[1]; [7]
  NO. GROWTH POSITIVE 168 HR: 23
[2]
  accuracy of sterilization indicators compared to indicators made with untreated spores: improved
[2]; [6]
  FLUORESCENCE - PERCENT POSITIVE 1 HR: 0%
  FLUORESCENCE - PERCENT POSITIVE 2 HR: 27.3%
  FLUORESCENCE - PERCENT POSITIVE 3 HR: 72.7%
  FLUORESCENCE - PERCENT POSITIVE 4 HR: 72.7%
[2]; [7]
  FLUORESCENCE - PERCENT POSITIVE 1 HR: 87%
  FLUORESCENCE - PERCENT POSITIVE 2 HR: 100.0%
  FLUORESCENCE - PERCENT POSITIVE 3 HR: 100.0%
  FLUORESCENCE - PERCENT POSITIVE 4 HR: 100.0%

## Decaglyceryl Monomyristate
[1]; [8]
  NO. GROWTH POSITIVE 168 HR: 3
[1]; [9]
  NO. GROWTH POSITIVE 168 HR: 2
[2]
  accuracy of sterilization indicators compared to indicators made with untreated spores: improved
[2]; [8]
  FLUORESCENCE - PERCENT POSITIVE 1 HR: 0%
  FLUORESCENCE - PERCENT POSITIVE 2 HR: 33.3%
  FLUORESCENCE - PERCENT POSITIVE 3 HR: 33.3%
  FLUORESCENCE - PERCENT POSITIVE 4 HR: 33.3%
[2]; [9]
  FLUORESCENCE - PERCENT POSITIVE 1 HR: 0%
  FLUORESCENCE - PERCENT POSITIVE 2 HR: 100%
  FLUORESCENCE - PERCENT POSITIVE 3 HR: 100%
  FLUORESCENCE - PERCENT POSITIVE 4 HR: 100%

## OC[C@@H](O)[C@@H](O)[C@H](O)[C@@H](O)CO [Sorbitol]
[1]; [10]
  GROWTH POSITIVE 168 HR: 36
[1]; [7]
  NO. GROWTH POSITIVE 168 HR: 37
[2]; [10]
  FLUORESCENCE - PERCENT POSITIVE 1 HR: 0%
  FLUORESCENCE - PERCENT POSITIVE 2 HR: 52.8%
  FLUORESCENCE - PERCENT POSITIVE 3 HR: 83.3%
  FLUORESCENCE - PERCENT POSITIVE 4 HR: 91.7%
[2]; [7]
  FLUORESCENCE - PERCENT POSITIVE 1 HR: 5.4%
  FLUORESCENCE - PERCENT POSITIVE 2 HR: 40.5%
  FLUORESCENCE - PERCENT POSITIVE 3 HR: 81.1%
  FLUORESCENCE - PERCENT POSITIVE 4 HR: 89.2%

## OCC(O)COCC(O)COCC(O)COCC(O)COCC(O)COCC(O)COCC(O)COCC(O)COCC(O)COCC(O)CO (centres unmarked) [Decaglycerol]
[1]; [11]
  NO. GROWTH POSITIVE 168 HR: 13
[1]; [12]
  NO. GROWTH POSITIVE 168 HR: 13
[1]; [13]
  NO. GROWTH POSITIVE 168 HR: 11
[1]; [14]
  NO. GROWTH POSITIVE 168 HR: 26
[1]; [15]
  NO. GROWTH POSITIVE 168 HR: 25
[1]; [16]
  NO. GROWTH POSITIVE 168 HR: 29
[2]; [11]
  FLUORESCENCE - PERCENT POSITIVE 1 HR: 0%
  FLUORESCENCE - PERCENT POSITIVE 2 HR: 0%
  FLUORESCENCE - PERCENT POSITIVE 3 HR: 0%
  FLUORESCENCE - PERCENT POSITIVE 4 HR: 23.1%
  FLUORESCENCE - PERCENT POSITIVE 5 HR: 23.1%
  FLUORESCENCE - PERCENT POSITIVE 6 HR: 30.8%
[2]; [12]
  FLUORESCENCE - PERCENT POSITIVE 1 HR: 0%
  FLUORESCENCE - PERCENT POSITIVE 2 HR: 0%
  FLUORESCENCE - PERCENT POSITIVE 3 HR: 7.7%
  FLUORESCENCE - PERCENT POSITIVE 4 HR: 23.1%
  FLUORESCENCE - PERCENT POSITIVE 5 HR: 23.1%
  FLUORESCENCE - PERCENT POSITIVE 6 HR: 30.8%
[2]; [13]
  FLUORESCENCE - PERCENT POSITIVE 1 HR: 0%
  FLUORESCENCE - PERCENT POSITIVE 2 HR: 0%
  FLUORESCENCE - PERCENT POSITIVE 3 HR: 9.1%
  FLUORESCENCE - PERCENT POSITIVE 4 HR: 18.2%
  FLUORESCENCE - PERCENT POSITIVE 5 HR: 45.5%
  FLUORESCENCE - PERCENT POSITIVE 6 HR: 63.6%
[2]; [14]
  FLUORESCENCE - PERCENT POSITIVE 1 HR: 0%
  FLUORESCENCE - PERCENT POSITIVE 2 HR: 0%
  FLUORESCENCE - PERCENT POSITIVE 3 HR: 7.7%
  FLUORESCENCE - PERCENT POSITIVE 4 HR: 42.3%
  FLUORESCENCE - PERCENT POSITIVE 5 HR: 46.2%
  FLUORESCENCE - PERCENT POSITIVE 6 HR: 53.8%
[2]; [15]
  FLUORESCENCE - PERCENT POSITIVE 1 HR: 0%
  FLUORESCENCE - PERCENT POSITIVE 2 HR: 12.0%
  FLUORESCENCE - PERCENT POSITIVE 3 HR: 36.0%
  FLUORESCENCE - PERCENT POSITIVE 4 HR: 64.0%
  FLUORESCENCE - PERCENT POSITIVE 5 HR: 72.0%
  FLUORESCENCE - PERCENT POSITIVE 6 HR: 76.0%
[2]; [16]
  FLUORESCENCE - PERCENT POSITIVE 1 HR: 0%
  FLUORESCENCE - PERCENT POSITIVE 2 HR: 6.9%
  FLUORESCENCE - PERCENT POSITIVE 3 HR: 48.3%
  FLUORESCENCE - PERCENT POSITIVE 4 HR: 69.0%
  FLUORESCENCE - PERCENT POSITIVE 5 HR: 79.3%
  FLUORESCENCE - PERCENT POSITIVE 6 HR: 89.7%

## O=CC(=O)C=O [1,2,3-Propantrial]
[3]
  accuracy of sterilization indicators compared to indicators made with untreated spores: improved
